Laboratory results taken from article PMC2821522 (Journal of Clinical Immunology, 2009).
Like-named read-outs stand apart in the source and are kept apart here.

Columns and labels:
Assay type in all cases: cell-based, human
[1] = system: PBMC (immune recognition, gamma interferon-secreting T cells)
CD4+ T cells = test: Flow cytometry / intracellular cytokine staining, CD4+ T cells; conditions: sarcoidosis subjects, in words, Fig. 1
[2] = system: expanded sarcoidosis CD4+ T cell lines; antigen presented by Sweig cells (HLA DRB1*1101 and DRB3*0202)

Sequence: WTNTPTKWDNSFLEI [katG peptide 13]
- subjects recognizing the peptide [1]: Seven of the eight
- subjects recognizing the peptide ([1]; PPD− control subjects): none
- CD4+ T cell response (CD4+ T cells; listed as katG): CD4+ T cell recognition of katG was also detected
- CD4+ T cell response (CD4+ T cells; listed as katG peptide): strong CD4+ T cells response
- immune response (CD4+ IFN-γ) [2]: minimal response
- immune response (CD4+ IFN-γ) ([2]; katG-expanded line of Sarcoidosis 6, with Sweig cells, Fig. 4, listed as katG peptides): strong CD4+ responses
